Molecules are shown by their SMILES. Where two headings read alike, the source gives them in different places. Bounds are passed on as bounds.

Data set [1] is described as follows: Liver microsomal stability, rat. The data set is classed as in vitro ADME. The note with it: liver microsomes, pH 7.4, read-out: Liver microsomal stability, t1/2, Rat. As for the experimental part:
(§1) The compound was mixed with 0.5 mg/ml human liver microsome (Thermal Fisher) at a final concentration of 1 µM in 100 mM potassium phosphate buffer, pH 7.4. The reactions were initiated by the addition of 1 mM NADPH. Samples in duplicate were incubated at 37 °C with mixing. 100 µL aliquots were transferred after 0, 5, 10, 30, 45, 60 minutes to a new tube with 300 µL acetonitrile, incubated on ice for 30 minutes, centrifuged at 1800×g at 4 °C for 10 minutes. The supernatants were transferred to glass vials subjected to LC/MS analysis. Peak areas were measured to calculate half-life according to the formula t1/2 = − 0.693/slope of linear regression analysis of ln [concentration] versus incubation time. Similar methods were applied to access mouse and rat liver microsomal stability of the compounds.

The next data set concerns the target T1, RORγ LBD (Homo sapiens, UniProt P51449).
T1 construct: The assay was performed with GST-tag RORγ LBD (25 ng/reaction, Creative Biomart); purchased Creative Biomart
T1 sequence (P51449 269-508 limits assumed): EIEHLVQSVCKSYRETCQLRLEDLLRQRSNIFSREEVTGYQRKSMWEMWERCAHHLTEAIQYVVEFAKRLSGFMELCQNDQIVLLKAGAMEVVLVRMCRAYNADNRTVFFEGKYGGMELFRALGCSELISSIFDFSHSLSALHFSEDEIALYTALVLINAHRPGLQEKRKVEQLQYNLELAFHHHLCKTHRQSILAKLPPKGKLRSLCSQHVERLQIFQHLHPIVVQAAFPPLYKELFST
Briefly: LanthaScreen TR-FRET human RORγ coactivator assay. Format: biochemical. The note with it: antagonist mode, read-out: Binding of RORγ LBD, IC50. An excerpt:
In LanthaScreen TR-FRET RORγ coactivator assay, the RORγ LBD was constitutively active and the coactivator peptide (fluorescein-D22) was recruited in the absence of ligand, or compound (Fig. 2a). The binding of an antagonist to RORγ LBD causes a conformational change of the receptor, leading to a decrease in the affinity of the receptor for the coactivator peptide. The separation of the fluorescently labeled coactivator peptide from RORγ LBD from the receptor with the terbium-labeled antibody causes a decrease in the TR-FRET signal compared to those without compound. The assay was validated by detecting the ligand-independent recruitment of coactivator peptide in the presence or absence of RORγ LBD (2.5- to 3-fold assay window). Effects of the key compounds of the novel chemotype in Fig. 1, were tested in LanthaScreen TR-FRET RORγ coactivator assay.
The assay was performed with GST-tag RORγ LBD (25 ng/reaction, Creative Biomart), 0.6 μM Fluorescein-D22 coactivator peptide and 8 nM Tb anti-GST antibody (Invitrogen) at room temperature for 60 minutes. The fluorescent signals were measured with 520 nm emission and 495 nm excitation on Tecan Infinite. The data were calculated using DMSO control as 0% inhibition and non-protein control as 100% inhibition. IC50 values were calculated using non-linear regression analysis of GraphPad Prism in all assays.
For orientation: TR-FRET usually uses a lanthanide donor and a delayed reading to cut background.

The nature of data set [2]: Liver microsomal stability, mouse. Format: in vitro ADME. The note with it: liver microsomes, pH 7.4, read-out: Liver microsomal stability, t1/2, Mouse. The method, then:
as §1
(Microsomes from liver hold many membrane-bound enzymes, among them those of drug oxidation.)

The next data set in a line: Oral PK in SD rats. The data set is classed as in vivo. Conditions: male, rat, plasma; for AUC: read-out: Exposure in SD Rat, AUC; for Cmax: read-out: Exposure in SD Rat, Cmax; for half-life: read-out: Exposure in SD Rat, t1/2 (converted). As for the experimental part: Compounds were dissolved in 5% DMSO, 5% tween 80 and then added 90% saline. Male SD rats were dosed with the compound via oral (2 mg/kg or 5 mg/kg) routes, respectively after fasting overnight. Blood of the animals were collected at indicated time post dosing. Blood samples were then prepared for plasma and analyzed for the compounds using validated LC/MS assays. The experimental protocol used in this study was approved by IACUC. The experiments were conducted in accordance with the Guiding Principles for the Care and Use of Laboratory Animals and complied with the ARRIVE guidelines.

In data set [3] the test system is IL-17 secretion from human PBMCs. Put plainly: Human IL-17 production assay using human PBMC. Format: cell-based. The note with it: cytostim stimulation 72 h. As for the experimental part: To confirm cellular on-target effects, we investigated the inhibition of selected RORγ antagonists on RORγ-regulated IL-17 secretion using human PBMC. Human IL-17-producing cells were readily formed following cytostim stimulation. In human PBMC stimulated with cytostim for 72 h, differentiation of Th17 cells was confirmed by increased secretion of IL-17 (291 pg/mL) in cell culture supernatant compared to basal level of IL-17 (20 pg/mL IL-17 without cytostim stimulation), […] of IL-17 secretion.
Human PBMCs (Zenbio) in TexMACS media were stimulated by cytostim (Miltenyi) for 72 h following the vendor's instruction. Human IL-17A in cell culture supernatant was measured using AlphaLISA human IL-17A Biotin-free detection kit (Perkin Elmer) according to the manufacturer’s protocol.

Data set [4] is described as follows: Liver microsomal stability, human. Format: in vitro ADME. Conditions: pH 7.4. As for the experimental part: as §1
In data set [5] the test system is IMQ-induced mouse psoriasis-like inflammation model. Set-up: method as in PMID 26870941. Conditions: 1% GSK2981278 ointment vs placebo + IMQ control; cited from earlier work.
Data set [6] deals with psoriasis. Also on record: method as in PMID 29150844. Conditions: ointment 0.03%, 0.1%, 0.8% and 4%, all doses; cited from earlier work.
Data set [7] concerns psoriasis. Set-up: method as in PMID 27852111. Conditions: oral, phase 2a, cited from earlier work.
[8] abbreviates: human, liver microsomes, 1 µM compound, 0.5 mg/ml microsome, NADPH, 37 °C, read-out: Liver microsomal stability, t1/2, Human.

Regarding `CCS(=O)(=O)c1ccc(Cc2nc3c(Cl)c(N4CCC(F)(F)CC4)c(Cl)cc3[nH]2)cc1` [Compound 2, 4,6-dichloro-5-(4,4-difluoropiperidin-1-yl)-2-(4-(ethylsulfonyl)benzyl)-1H-benzo[d]imidazole], the half-life at 1 µM in data set [1] was 34.5 min; in data set [2] it was 7.8 min; in [4] (setting [8]), 18.5 min; in data set [4] (range across human, rat and mouse liver microsomes, read-out: t1/2 in human, rat and mouse liver microsome stability assays) it was 7.8 to 34.5 min. For the same molecule, at RORγ LBD, the IC50 (as a rule, the concentration that gives 50% inhibition) was 40 ± 27 nM. In addition, in the data set “Oral PK in SD rats” (2 mg/kg oral), the AUC (in general, concentration integrated over time) is 352 ng·h/mL. Moreover, in the data set “Oral PK in SD rats” (2 mg/kg oral), the Cmax (usually the maximum level reached in the sampled fluid or tissue) turned out to be 70 ng/mL. In the data set “Oral PK in SD rats” (2 mg/kg oral), the half-life was 120 min. The EC50 (in general, the concentration at which the effect is half-maximal) in [3] was determined as 46 ± 2 nM.
Turning to `CCc1ccc(N(CC(C)C)S(=O)(=O)c2ccc(OCC3CCOCC3)c(CO)c2)cc1` [GSK2981278], in data set [5], the “reduction of epithermal thickness” value was 23%. Moreover, the Infiltrate thickness entry with psoriasis [6] was “not changed”.
As to `CCS(=O)(=O)c1ccc(CNC(=O)c2cnc3c(c2)CN(C[C@H]2CC[C@H](C(F)(F)F)CC2)[C@H]3C(C)C)nc1` [VTP43742], the “efficacy in psoriatic patients” value in the data set with psoriasis [7] (four-week period) is given as “clear signal of efficacy”. Besides, in the data set on psoriasis [7], the transaminase result was “elevations of reversible transaminase”.
Consider `CCS(=O)(=O)c1ccc(Cc2nc3c(Cl)c(-c4ccccc4OC(F)(F)F)c(Cl)cc3[nH]2)c(Cl)c1` [Compound 1, 4,6-dichloro-2-(2-chloro-4-(ethylsulfonyl)benzyl)-5-(2-(trifluoromethoxy)phenyl)-1H-benzo[d]imidazole], for which, in data set [1], the half-life at 1 µM is greater than 120 min. In addition, the IC50 on RORγ LBD stood at 62 ± 18 nM. Also, in the data set “Oral PK in SD rats” (5 mg/kg oral), the AUC turned out to be 6980 ng·h/mL, the Cmax is 446 ng/mL and the half-life was 768 min. Also, in [3], the EC50 amounted to 30 ± 10 nM. In data set [4] (setting [8]), the half-life at 1 µM was greater than 120 min.

Values taken from PMC8080595, “Discovery of a novel RORγ antagonist with skin-restricted exposure for topical treatment of mild to moderate psoriasis” (Scientific Reports, 2021).
